target: α1β3γ2L GABAA receptors (β+ – α− sites) (Homo sapiens, UniProt P14867+P18507+P28472); assay: Inhibition of ^3[H]azi-etomidate photoaffinity labeling of purified receptors; format: binding; conditions: read-out: IC50 for Inhibiting Photoaffinity Labeling by ^3[H]Azi-etomidate (95% CI); ~2 μM photolabel; 1 mM GABA (open/desensitized state)
Sequence (P14867 28-456): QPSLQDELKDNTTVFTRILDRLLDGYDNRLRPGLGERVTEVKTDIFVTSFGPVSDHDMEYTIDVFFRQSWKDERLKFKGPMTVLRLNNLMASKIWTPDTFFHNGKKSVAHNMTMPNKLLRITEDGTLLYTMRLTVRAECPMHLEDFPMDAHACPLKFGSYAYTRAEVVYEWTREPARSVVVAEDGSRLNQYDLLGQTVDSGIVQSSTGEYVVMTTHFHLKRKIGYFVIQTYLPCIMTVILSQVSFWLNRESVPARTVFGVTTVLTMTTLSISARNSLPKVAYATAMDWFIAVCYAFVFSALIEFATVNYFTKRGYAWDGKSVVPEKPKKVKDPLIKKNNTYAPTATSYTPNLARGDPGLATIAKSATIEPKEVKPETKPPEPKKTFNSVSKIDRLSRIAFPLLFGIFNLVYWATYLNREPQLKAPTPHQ
Sequence (P28472 26-473): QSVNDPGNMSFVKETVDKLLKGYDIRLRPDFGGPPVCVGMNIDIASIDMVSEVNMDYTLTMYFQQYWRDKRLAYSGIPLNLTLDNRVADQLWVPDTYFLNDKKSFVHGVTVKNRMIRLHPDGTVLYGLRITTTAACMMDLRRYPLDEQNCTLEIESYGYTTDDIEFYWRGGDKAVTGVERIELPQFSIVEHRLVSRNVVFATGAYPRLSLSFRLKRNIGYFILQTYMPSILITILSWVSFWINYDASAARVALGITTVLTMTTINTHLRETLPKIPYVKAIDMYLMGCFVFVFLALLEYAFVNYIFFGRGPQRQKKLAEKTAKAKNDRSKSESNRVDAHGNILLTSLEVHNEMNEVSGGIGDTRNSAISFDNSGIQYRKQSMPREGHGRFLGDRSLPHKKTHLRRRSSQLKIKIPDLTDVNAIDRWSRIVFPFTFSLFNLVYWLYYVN
Sequence (P18507 40-475): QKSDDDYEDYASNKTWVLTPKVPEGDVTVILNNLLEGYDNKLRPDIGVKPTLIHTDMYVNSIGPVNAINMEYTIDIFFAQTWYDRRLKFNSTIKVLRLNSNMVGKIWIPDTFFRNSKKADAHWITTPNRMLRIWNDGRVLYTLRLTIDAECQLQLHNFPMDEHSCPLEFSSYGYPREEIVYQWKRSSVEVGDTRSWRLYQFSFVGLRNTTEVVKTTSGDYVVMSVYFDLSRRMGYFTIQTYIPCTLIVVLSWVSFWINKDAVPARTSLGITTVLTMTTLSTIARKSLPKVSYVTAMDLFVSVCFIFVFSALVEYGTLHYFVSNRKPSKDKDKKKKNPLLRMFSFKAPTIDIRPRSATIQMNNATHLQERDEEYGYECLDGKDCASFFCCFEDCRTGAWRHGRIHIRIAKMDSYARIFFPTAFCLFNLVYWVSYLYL

Molecule	IC50 [µM]
CCOC(=O)c1cncn1[C@H](C)c1cccc(OC(C)C)c1 [m-Isopropoxy-etomidate]	210
CCOC(=O)c1cncn1[C@H](C)c1ccc(F)cc1 [p-Fluoro-etomidate]	3.6
CCOC(=O)c1cncn1[C@H](C)c1ccc(OC)cc1 [p-Methoxy-etomidate]	75
CCOC(=O)c1cncn1[C@H](C)c1ccc(Br)cc1 [p-Bromo-etomidate]	8.1
m-Dimethoxy-etomidate	830
CCOC(=O)c1cncn1C(C)c1ccc2ccccc2c1 (stereo not drawn) [Naphthalene2-etomidate]	77

target: α1β3γ2L GABAA receptors (Homo sapiens, UniProt P14867+P18507+P28472); assay: not given; format: cell-based; conditions: 100 μM drug; wild-type receptors; n = 6 oocytes; EC5 GABA alone 4.4 ± 1.2%; P = 0.002
Sequence (P14867 28-456): as the sequence (P14867 28-456) above
Sequence (P28472 26-473): as the sequence (P28472 26-473) above
Sequence (P18507 40-475): as the sequence (P18507 40-475) above

Molecule	Peak amplitude of EC5 GABA-evoked current with drug
CCOC(=O)c1cncn1C(C)c1cccc2ccccc12 (stereo not drawn) [Naphthalene-etomidate]	10 ± 2.4 % of the current produced by 1 mM GABA

system: GABAA receptor transmembrane anesthetic binding sites; assay: not given; conditions: cited from earlier work

Molecule	Selectivity of photolabel for its respective class of binding sites
C=CC[C@@]1(c2cccc(C3(C(F)(F)F)N=N3)c2)C(=O)NC(=O)N(C)C1=O	more than 50 fold
CC(c1ccccc1)n1cncc1C(=O)OCCC1(C)N=N1 (stereo not drawn) [^3[H]azi-etomidate]	more than 50 fold

Reference: paper PMC6278829 (Anesthesiology, 2018)
